Experimental findings from PubChem BioAssay AID1963856 (Molecular Pharmacology Branch, DTP, NCI, 2024) are described below.

Usually viability, T/C stands for the ratio of treated to control. The IC50 is the concentration at which inhibition is half-maximal.

The subject of this assay is LG0567-F671-PDC KRAS tumor spheroid viability. The assay is described as follows: Anticancer human tumor LG0567-F671-PDC patient-derived lung adenocarcinoma cell line growth inhibition [KRAS2]. The following applies: spheroids with HUVEC and MSC; for viability, T/C: stronger effect = lower value. The text has this:
Multicellular complex tumor spheroid response to RAS pathway inhibitors in combination with a targeted agents in patient-derived cell lines with oncogenic KRAS variants from multiple cancer types
A high-throughput screen of multi-cell type tumor spheroids was designed to identify active combinations of targeted small molecules and KRAS pathway inhibitors. Complex spheroids include a stromal component modeled by human endothelial cells (HUVEC) and fibroblasts modeled by human mesenchymal stem cells (MSCs). The concentration ranges selected for each drug and investigational agent were based upon clinically achievable concentrations if the clinical Cmax of the agent was known.
Compounds. The drugs and investigational agents: BI-3406 (NSC825286), BAY-293 (NSC824723), batoprotafib (TNO155; NSC825523), sotorasib (AMG 510; NSC818433), MRTX1257 (NSC819558), elimusertib (BAY 1895344; NSC800525), molibresib (GSK525762; NSC774829), temuterkib (LY3214996; NSC803410), venetoclax (NSC766270), alisertib (NSC759677), olaparib (NSC753686), talazoparib (NSC767125), erdafitinib (NSC781556), ipatasertib (NSC767898), cabozantinib (NSC761068), nintedanib (NSC756659), abemaciclib (NSC768073), docetaxel (NSC628503), trametinib (NSC758246), and sapanisertib (NSC764658) were obtained from the National Cancer Institute (NCI) Developmental Therapeutics Program Chemical Repository. The FDA-approved anticancer drug set is available from the Developmental Therapeutics Program. […] The stock solutions were prepared in dimethyl sulfoxide (DMSO, Sigma-Aldrich, St. Louis, MO, cat. D2650) at 800-fold the tested concentration and stored at -70 degrees C prior to their use. All drugs and investigational agents were tested over a range starting from a high concentration at or near the clinical Cmax and decreasing in half-log increments. If the clinical Cmax for an agent had not been determined, the highest concentration tested was 10 microM.
Cell Culture. All cells were maintained in an incubator at 37 degrees C and 5% CO2 with 95% humidity. The PDC lines were cultured according to standard operating procedures established by the NCI PDMR (https://pdmr.cancer.gov/sops/default.htm). Briefly, all PDCs were thawed and cultured in Matrigel-coated flasks prepared with a working solution of 1X Ham's F-12 nutrient mix, without supplementation (Invitrogen, Waltham, MA, cat. 11765054), 100 U/mL penicillin-streptomycin (Invitrogen, cat. 15140122), and 2.5% Matrigel (Corning Inc., Corning, NY, cat. 354248) for the first three passages. All PDCs were cultured in complete DMEM/F-12 media containing advanced DMEM/F-12 (Invitrogen, cat. 12634028), 4.9% defined fetal bovine serum, heat inactivated (HyClone Laboratories Inc., Logan, UT, cat. SH30070.03HI), 389 ng/mL hydrocortisone (Sigma-Aldrich, cat. H4001), 9.7 ng/mL human EGF recombinant protein (Invitrogen, cat. PHG0313), 23.4 microg/mL adenine (Sigma-Aldrich, cat. A2786), 97.3 U/mL penicillin-streptomycin (Invitrogen, cat. 15140122), 1.9 mM L-glutamine (Invitrogen, cat. 25030081), and 9.7 microM Y-27632 dihydrochloride (Tocris Bioscience, Bristol, United Kingdom, cat. 1254). The PDCs were cultured in complete DMEM/F12 media without 9.7 microM Y-27632 dihydrochloride for at least two passages prior to the screen. The established cell line HOP-62 was cultured in RPMI 1640 medium, HEPES (Invitrogen, cat. 22400105) with 10% defined fetal bovine serum (HyClone Laboratories Inc., cat. SH30070.03) and 2 mM L-glutamine (Invitrogen, cat. 25030081). The pooled donor HUVEC were cultured in endothelial cell growth medium 2 (PromoCell, Heidelberg, Germany, cat. C-22011) and the hMSC were cultured in mesenchymal stem cell growth medium 2 (PromoCell, cat. C-28009). For all experiments, HUVEC and hMSC were used at passages </=5, while the malignant cell lines were used at passages </=15. […]
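Further: drug exposure lasted seven days after spheroids formed for three days.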

Turning to `CC(=O)Nc1cccc(-n2c(=O)n(C3CC3)c(=O)c3c(Nc4ccc(I)cc4F)n(C)c(=O)c(C)c32)c1`, the viability, T/C reads like this: (compound 0.0001 µM) 80.8% [middle of 5 runs]; (compound 0.000316 µM) 63.3% [middle of 5 runs]; (compound 0.001 µM) 55.2% [middle of 5 runs]; (compound 0.00316 µM) 50.8% [middle of 5 runs]; (compound 0.01 µM) 38.5% [middle of 5 runs]; (compound 0.0316 µM) 15.6% [middle of 5 runs]. Besides, the IC50 (curve of compound) is 2.56 nM [middle of 5 runs].

Regarding `COc1cc2nccc(Oc3ccc(NC(=O)C4(C(=O)Nc5ccc(F)cc5)CC4)cc3)c2cc1OC` + CNCc1ccccc1-c1csc(C(C)Nc2nc(C)nc3cc(OC)c(OC)cc23)c1, the IC50 was above 10000 nM (curve of first compound, second compound 0.1 µM); 541 nM (curve of first compound, second compound 0.316 µM); 197 nM (curve of first compound, second compound 1 µM); below 31.6 nM (curve of first compound, second compound 3.16 µM); below 31.6 nM (curve of first compound, second compound 10 µM). In addition, the viability, T/C (second compound 0.1 µM, first compound 0.0316 µM) is 78.2%; the viability, T/C (second compound 0.1 µM, first compound 0.1 µM) was 66.5%; the viability, T/C (second compound 0.1 µM, first compound 0.316 µM) was 56.8%; the viability, T/C (second compound 0.1 µM, first compound 1 µM) is 49.6%; the viability, T/C (second compound 0.1 µM, first compound 3.16 µM) was 33.1%; the viability, T/C (second compound 0.1 µM, first compound 10 µM) is 88.5%. In addition, the viability, T/C runs as follows: (second compound 0.316 µM, first compound 0.0316 µM) 65.8%; (second compound 0.316 µM, first compound 0.1 µM) 58.8%; (second compound 0.316 µM, first compound 0.316 µM) 51.8%; (second compound 0.316 µM, first compound 1 µM) 39.6%; (second compound 0.316 µM, first compound 3.16 µM) 27.2%; (second compound 0.316 µM, first compound 10 µM) 75.7%. Further, the viability, T/C was 55% (second compound 1 µM, first compound 0.0316 µM); 58.2% (second compound 1 µM, first compound 0.1 µM); 45.4% (second compound 1 µM, first compound 0.316 µM); 27.8% (second compound 1 µM, first compound 1 µM); 23.1% (second compound 1 µM, first compound 3.16 µM); 38% (second compound 1 µM, first compound 10 µM). In addition, the viability, T/C runs as follows: (second compound 3.16 µM, first compound 0.0316 µM) 0.31%; (second compound 3.16 µM, first compound 0.1 µM) 0.25%; (second compound 3.16 µM, first compound 0.316 µM) 0.87%; (second compound 3.16 µM, first compound 1 µM) 0.11%; (second compound 3.16 µM, first compound 3.16 µM) 0.21%; (second compound 3.16 µM, first compound 10 µM) 0.7%. Besides, the viability, T/C was 0.63% (second compound 10 µM, first compound 0.0316 µM); 0.38% (second compound 10 µM, first compound 0.1 µM); 0.97% (second compound 10 µM, first compound 0.316 µM); 0.33% (second compound 10 µM, first compound 1 µM); 2.44% (second compound 10 µM, first compound 3.16 µM); 0.91% (second compound 10 µM, first compound 10 µM).

As for `CN(C)C/C=C/C(=O)Nc1cc2c(Nc3ccc(F)c(Cl)c3)ncnc2cc1O[C@H]1CCOC1`, the viability, T/C runs as follows: (compound 0.000316 µM) 100% [middle of 5 runs]; (compound 0.001 µM) 90.1% [middle of 5 runs]; (compound 0.01 µM) 72.6% [middle of 5 runs]; (compound 0.0316 µM) 60.4% [middle of 5 runs]; (compound 0.1 µM) 60.7% [middle of 5 runs]. The IC50 (curve of compound) was above 100 nM.
